Patent US11807625B2, “Capsid inhibitors for the prevention of HIV” (Gilead Sciences, Inc., priority 2019, dated 2023)
Where two headings read alike, the source gives them in different places.

Experiment: PK of compound of Formula (Ia) after single subcutaneous dose of solution formulations in beagle dogs
Type: in vivo
Description: Formulations containing the compound of Formula (Ia), or a pharmaceutically acceptable salt thereof, were prepared as solutions and optionally administered subcutaneously or intramuscularly to rats, rabbits, and/or dogs.
A solution of about 400 mg/mL of the compound of Formula (Ia) having 17.00 w/w % water, 36.40 w/w % PEG 300, 35.20 w/w % of a sodium salt of a compound of Formula (Ia), 5.00 w/w % ethanol, and 6.40 w/w % poloxamer 188 was prepared. The solution was administered subcutaneously to male beagle dogs at a dose level of about 12 mg/kg and male Wistar Han rats at a dose level of about 50 mg/kg. The pharmacokinetic profiles were determined, and the results for dogs are summarized in Table and Table, while the results for rats are summarized in Table and Table below.
A solution of about 500 mg/mL of the compound of Formula (Ia) having 14.06 w/w % water, 30.12 w/w % PEG 300, […] of a sodium salt of a compound of Formula (Ia), 5.00 w/w % ethanol, and 6.40 w/w % poloxamer 188 was prepared. The solution was administered subcutaneously to male beagle dogs at a dose level of about 12 mg/kg and male Wistar Han rats at a dose level of about 50 mg/kg. The pharmacokinetic profiles were determined, and the results for dogs are summarized in Table and Table, while the results for rats are summarized in Table and Table below.
A solution of about 300 mg/mL of the compound of Formula (Ia) having 23.33 w/w % water, 48.99 w/w % PEG 300, 26.47 w/w % of a sodium salt of a compound of Formula (Ia), and 1.21 w/w % poloxamer 188 was prepared. The solution was administered subcutaneously to male beagle dogs at a dose level of about 6 mg/kg and male Wistar Han rats at a dose level of about 50 mg/kg. The pharmacokinetic profiles were determined, and the results for dogs are summarized in Table and Table, while the results for rats are summarized in Table and Table below.
A solution of about 400 mg/mL of the compound of Formula (Ia) having 18.80 w/w % water, 40.25 w/w % PEG 300, 34.38 w/w % of a sodium salt of a compound of Formula (Ia), 5.00 w/w % ethanol, and 1.57 w/w % poloxamer 188 was prepared. The solution was administered subcutaneously to male beagle dogs at a dose level of about 12 mg/kg and male Wistar Han rats at a dose level of about 50 mg/kg. The pharmacokinetic profiles were determined, and the results for dogs are summarized in Table and Table, while the results for rats are summarized in Table and Table below.
A solution of about 500 mg/mL of the compound of Formula (Ia) having 16.29 w/w % water, 34.88 w/w % PEG 300, 41.92 w/w % of a sodium salt of a compound of Formula (Ia), 5.00 w/w % ethanol, and 1.91 w/w % poloxamer 188 was prepared. The solution was administered subcutaneously to male beagle dogs at a dose level of about 12 mg/kg and male Wistar Han rats at a dose level of about 50 mg/kg. The pharmacokinetic profiles were determined, and the results for dogs are summarized in Table and Table, while the results for rats are summarized in Table and Table below.
A solution of about 400 mg/mL of the compound of Formula (Ia) having 20.90 w/w % water, 44.72 w/w % PEG 300, and 34.38 w/w % of a sodium salt of a compound of Formula (Ia) was prepared. The solution was administered subcutaneously to male beagle dogs at a dose level of about 12 mg/kg and male Wistar Han rats at a dose level of about 50 mg/kg. The pharmacokinetic profiles were determined, and the results for dogs are summarized in Table and Table, while the results for rats are summarized in Table and Table below.
A solution of about 400 mg/mL of the compound of Formula (Ia) having 19.90 w/w % water, 42.59 w/w % PEG 300, 34.38 w/w % of a sodium salt of a compound of Formula (Ia), and 3.13 w/w % poloxamer 188 was prepared. The solution was administered subcutaneously to male beagle dogs at a dose level of about 12 mg/kg and male Wistar Han rats at a dose level of about 50 mg/kg. […]

[1] = male, beagle, dog, plasma, sc, 6 mg/kg, individual dogs, SC 6 mg/kg, solution V, 300 mg/mL
[2] = male, beagle, dog, plasma, sc, 6 mg/kg, mean, n = 3 dogs, SC 6 mg/kg, solution V, 300 mg/mL
[3] = male, beagle, dog, plasma, sc, 6 mg/kg, mean ± SD, n = 3 dogs, SC 6 mg/kg, solution V, 300 mg/mL

With `CC(C)(C#Cc1ccc(-c2ccc(Cl)c3c(NS(C)(=O)=O)nn(CC(F)(F)F)c23)c([C@H](Cc2cc(F)cc(F)c2)NC(=O)Cn2nc(C(F)(F)F)c3c2C(F)(F)[C@@H]2C[C@H]32)n1)S(C)(=O)=O` [compound of Formula (Ia)] the Plasma concentration (beagle dogs, SC 12 mg/kg, 400 mg/mL solution W (5.00% ethanol, 1.57% poloxamer 188), 1.00 h, animals #1-#3) was “BLQ”, the concentration at 3 h [1] was 2.26 nM and the concentration at 3 h (male, beagle, dog, plasma, sc, 6 mg/kg, mean (dog #2 BLQ), SC 6 mg/kg, solution V, 300 mg/mL) was 2.75 nM. For the same compound, the concentration at 8 h [1] was 8.26 nM, the concentration at 8 h [2] was 10.4 nM and the concentration at 24 h [1] was 22.3 nM. The concentration at 24 h [2] was 23.5 nM, the concentration at 48 h [1] was 37.1 nM and the concentration at 48 h [2] was 31.5 nM. It also gave a concentration at 72 h [1] of 32.8 nM, a concentration at 72 h [2] of 31.3 nM and a concentration at 96 h [1] of 39.5 nM. The concentration at 96 h [2] was 32.6 nM, the concentration at 168 h [1] was 41.8 nM and the concentration at 168 h [2] was 39.2 nM. It also gave a concentration at 336 h [1] of 99.2 nM, a concentration at 336 h [2] of 129 nM and a concentration at 504 h [1] of 122 nM. It also gave a concentration at 504 h [2] of 151 nM, a concentration at 672 h [1] of 95.3 nM and a concentration at 672 h [2] of 122 nM. For the same compound, the concentration at 840 h [1] was 53.3 nM, the concentration at 840 h [2] was 58.9 nM and the concentration at 1008 h [1] was 29.1 nM. It also gave a concentration at 1008 h [2] of 30.2 nM, a concentration at 1344 h [1] of 26.9 nM and a concentration at 1344 h [2] of 23.8 nM. For the same compound, the concentration at 1680 h [1] was 13.7 nM, the concentration at 1680 h [2] was 12.3 nM and the concentration at 2016 h (male, beagle, dog, plasma, sc, 6 mg/kg, 2016 h, mean, n = 3 dogs, SC 6 mg/kg, solution V, 300 mg/mL) was 8.5 nM. For the same compound, the concentration at 2352 h [1] was 4.5 nM, the concentration at 2352 h [2] was 4.7 nM and the concentration at 2688 h [1] was 2.1 nM. For the same compound, the concentration at 2688 h [2] was 2.7 nM, the concentration at 3024 h [1] was 2.5 nM and the concentration at 3024 h [2] was 2.3 nM. The concentration at 3360 h [1] was 1.5 nM, the concentration at 3360 h [2] was 1.3 nM and the AUC(0-inf) [3] was 113 ± 12 µM·h. It also gave a Cmax [3] of 155 ± 30 nM, a Tmax [3] of 18.7 ± 4.04 days and a half-life [3] of 25.5 days. The AUC(0-t) (male, beagle, dog, plasma, sc, 6 mg/kg, mean ± SD, n = 3 dogs, SC 6 mg/kg, solution V, 300 mg/mL, read-out: AUC0-24 h) was 0.304 ± 0.028 µM·h, the AUC(0-t) (male, beagle, dog, plasma, sc, 6 mg/kg, mean ± SD, n = 3 dogs, SC 6 mg/kg, solution V, 300 mg/mL, read-out: AUC0-168 h) was 5.07 ± 0.5 µM·h and the AUC(0-t) (male, beagle, dog, plasma, sc, 6 mg/kg, mean ± SD, n = 3 dogs, SC 6 mg/kg, solution V, 300 mg/mL, read-out: AUC0-672 h) was 65.6 ± 9.9 µM·h. It also gave an AUC(0-t) (male, beagle, dog, plasma, sc, 6 mg/kg, mean ± SD, n = 3 dogs, SC 6 mg/kg, solution V, 300 mg/mL, read-out: AUC0-1344 h) of 97.4 ± 12.7 µM·h and an AUC(0-t) (male, beagle, dog, plasma, sc, 6 mg/kg, mean ± SD, n = 3 dogs, SC 6 mg/kg, solution V, 300 mg/mL, read-out: AUC0-1680 h) of 103 ± 12 µM·h.
